In patent publication US11548875B2, “Inhibitor compounds for male contraception” (University of Washington, priority 2018, dated 2023):

How the values were obtained:
ALDH2 = biological target: T1, ALDH2 (Homo sapiens, UniProt P05091); test: Purified ALDH2 assay with propanal, NADH fluorescence; assay type: biochemical; conditions: purified enzyme
T1 construct: histidine-tag (N); made in house; host or cells: bacterial expression (pETite vector, IPTG induction)
T1 sequence (P05091 18-517): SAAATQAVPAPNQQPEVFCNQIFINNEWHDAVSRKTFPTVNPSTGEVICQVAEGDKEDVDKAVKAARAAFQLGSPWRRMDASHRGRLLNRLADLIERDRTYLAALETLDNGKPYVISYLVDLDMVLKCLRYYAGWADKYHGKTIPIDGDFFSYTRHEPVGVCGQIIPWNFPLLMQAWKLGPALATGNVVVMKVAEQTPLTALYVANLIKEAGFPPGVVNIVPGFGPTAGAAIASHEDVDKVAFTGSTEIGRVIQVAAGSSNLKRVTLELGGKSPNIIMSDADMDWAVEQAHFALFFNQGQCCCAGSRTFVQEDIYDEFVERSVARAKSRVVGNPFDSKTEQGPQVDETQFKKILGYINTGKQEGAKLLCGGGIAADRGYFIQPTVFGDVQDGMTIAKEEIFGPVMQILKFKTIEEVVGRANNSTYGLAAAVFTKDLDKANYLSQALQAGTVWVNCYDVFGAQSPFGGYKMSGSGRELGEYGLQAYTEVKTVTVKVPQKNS
Outline: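 His-tagged human ALDH2 expressed in bacteria and purified. 2 μg enzyme incubated with 20 μM propanal and varying inhibitor concentrations at room temperature. Activity read as NADH fluorescence (Ex 350/Em 460 nm), with initial velocity from two consecutive readings over 1 minute.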

ALDH1A2 = biological target: T2, ALDH1A2 (Homo sapiens, UniProt O94788); test: Cell-based enzyme assay, retinoic acid production in ALDH1A2/H1299 cells
T2 sequence (O94788 1-518): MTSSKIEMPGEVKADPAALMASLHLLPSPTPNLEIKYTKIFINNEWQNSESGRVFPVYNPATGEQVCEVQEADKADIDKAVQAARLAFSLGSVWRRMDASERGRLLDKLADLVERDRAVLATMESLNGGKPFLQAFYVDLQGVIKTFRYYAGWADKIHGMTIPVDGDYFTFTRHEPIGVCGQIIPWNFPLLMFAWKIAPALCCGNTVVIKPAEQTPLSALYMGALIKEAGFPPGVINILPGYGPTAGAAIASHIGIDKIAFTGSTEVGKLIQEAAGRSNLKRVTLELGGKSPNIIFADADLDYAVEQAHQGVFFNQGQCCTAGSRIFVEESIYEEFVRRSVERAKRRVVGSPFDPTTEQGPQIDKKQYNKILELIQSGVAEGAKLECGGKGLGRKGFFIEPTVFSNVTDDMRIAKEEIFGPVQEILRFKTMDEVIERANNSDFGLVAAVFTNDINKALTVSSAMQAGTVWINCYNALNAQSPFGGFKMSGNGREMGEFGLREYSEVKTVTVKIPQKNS
Outline: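 ALDH1A1- or ALDH1A2-stably transfected H1299 cells grown to confluence, then treated 20 h in serum-free RPMI-1640 with 2 μM all-trans-retinal plus varying inhibitor concentrations at 37 °C. Retinoic acid in cells and media quantified; inhibition from RA levels with vs without inhibitor.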

| IC50 (ALDH2) | EC50 (ALDH1A2) | SMILES |
| --- | --- | --- |
| > 100 µM | 1.42 µM | CN(C)c1ccc(C(=O)N2CCN(c3ccc([N+](=O)[O-])c(N4CCCC4)c3)CC2)cc1 [Compound 346, 4-Dimethylaminophenyl-1-{4-[4-nitro-3-(pyrrolidin-1-yl)phenyl]piperazin-1-yl}methanone] |
| 61.6 µM | 0.35 µM | CC(=O)n1cccc1C(=O)N1CCN(c2ccc([N+](=O)[O-])c(N3CCCC3)c2)CC1 [Compound 347, {4-[4-Nitro-3-(pyrrolidin-1-yl)phenyl]piperazin-1-yl}(1-acetyl-pyrrol-2yl)methanone] |
| > 80 µM | > 5 µM | Cn1cccc1C(=O)N1CCN(c2ccc(NC(=O)C(Cl)Cl)c(N3CCCC3)c2)CC1 [Compound 367, 1-[4-(4-N-Dichloroacetyl-3-(pyrrolidin-1-yl)phenyl]piperazin-1-yl](1-methyl-1H-pyrrol-2-yl)methanone] |
| 3.5 µM | 0.7 µM | Cn1cccc1C(=O)N1CCN(c2ccc(NC(=O)CCl)c(N3CCCC3)c2)CC1 [Compound 372, 1-[4-(4-N-Chloroacetyl-3-(pyrrolidin-1-yl)phenyl]piperazin-1-yl](1-methyl-1H-pyrrol-2-yl)methanone] |
| > 100 µM | 0.88 µM | Cn1cccc1C(=O)N1CCN(c2ccc(-c3ccc([N+](=O)[O-])cc3)c(N3CCCCC3)c2)CC1 [Compound 373] |
